Measurements: PMC12526203, “Multicomponent Synthesis of Multi-Target Quinazolines Modulating Cholinesterase, Oxidative Stress, and Amyloid Aggregation Activities for the Therapy of Alzheimer’s Disease” (Molecules, 2025)
“And” between values parts separate entries of the source, which are not always exact repeats. Equal values may be shown once. “Also recorded” adds a separate entry of the source. Read-outs that look alike come from different tables or passages of the source.

How the values were obtained:
[1] = biological target: T1, Electrophorus electricus AChE (EeAChE) (Electrophorus electricus, UniProt O42275); experiment: biochemical; conditions: for inhibition at 10 µM: read-out: % inhibition of EeAChE at 10 μM (footnote c); for IC50: Ellman method, pH 8.0
T1 construct: purchased Merck
T1 sequence (O42275 24-633): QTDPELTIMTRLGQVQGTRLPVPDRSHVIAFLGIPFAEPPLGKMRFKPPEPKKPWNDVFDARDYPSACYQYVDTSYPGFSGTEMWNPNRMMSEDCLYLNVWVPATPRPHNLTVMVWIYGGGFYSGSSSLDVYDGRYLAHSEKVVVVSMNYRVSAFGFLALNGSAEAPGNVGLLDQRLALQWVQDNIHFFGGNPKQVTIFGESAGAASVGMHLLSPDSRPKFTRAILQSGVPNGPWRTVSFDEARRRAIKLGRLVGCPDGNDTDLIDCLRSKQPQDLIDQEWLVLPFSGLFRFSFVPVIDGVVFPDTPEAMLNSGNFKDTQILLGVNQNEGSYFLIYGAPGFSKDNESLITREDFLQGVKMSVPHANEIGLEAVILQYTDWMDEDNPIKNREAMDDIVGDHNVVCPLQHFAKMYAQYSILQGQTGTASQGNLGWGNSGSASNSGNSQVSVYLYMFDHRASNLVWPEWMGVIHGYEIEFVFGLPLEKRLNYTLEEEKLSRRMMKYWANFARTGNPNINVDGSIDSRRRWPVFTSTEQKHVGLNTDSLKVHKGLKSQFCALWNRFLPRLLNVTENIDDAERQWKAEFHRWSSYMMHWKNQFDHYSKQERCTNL
Description: (§1) The inhibitory activities of the tested compounds against EeAChE and eqBuChE were determined using the spectrophotometric procedure based on Ellman’s method. […] After a pre-incubation step, acetylthiocholine iodide (105 µL, final concentration 0.35 mM) or butyrylthiocholine iodide (150 µL, final concentration 0.5 mM) was added, and the mixture was incubated for an additional 15 min.

equine BuChE (eqBuChE) = biological target: T2, equine BuChE (eqBuChE) (Equus caballus, UniProt P81908); experiment: biochemical; type: biochemical; conditions: for inhibition at 10 µM: read-out: % inhibition of eqBuChE at 10 μM (footnote c); for IC50: pH 8.0
T2 construct: purchased Merck
T2 sequence (P81908 whole entry): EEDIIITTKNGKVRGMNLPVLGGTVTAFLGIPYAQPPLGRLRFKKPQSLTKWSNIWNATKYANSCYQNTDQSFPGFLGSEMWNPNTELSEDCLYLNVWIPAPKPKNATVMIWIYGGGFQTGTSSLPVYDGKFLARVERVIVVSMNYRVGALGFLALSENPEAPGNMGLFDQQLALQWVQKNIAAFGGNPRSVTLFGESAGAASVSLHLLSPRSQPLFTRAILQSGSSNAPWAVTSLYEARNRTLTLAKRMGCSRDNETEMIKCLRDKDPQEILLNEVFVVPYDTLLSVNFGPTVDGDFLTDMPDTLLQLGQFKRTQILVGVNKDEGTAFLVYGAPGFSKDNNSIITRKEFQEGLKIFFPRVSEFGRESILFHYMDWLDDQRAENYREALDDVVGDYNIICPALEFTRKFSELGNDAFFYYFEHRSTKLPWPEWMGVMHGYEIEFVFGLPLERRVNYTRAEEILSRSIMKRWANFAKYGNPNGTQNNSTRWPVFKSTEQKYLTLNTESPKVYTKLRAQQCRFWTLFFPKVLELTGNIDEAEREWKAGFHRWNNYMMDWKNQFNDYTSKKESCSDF
Description: as §1

Aβ1–42 = biological target: T3, Aβ1–42 (Homo sapiens, UniProt P05067); experiment: Aβ1–42 self-aggregation, thioflavin T-based fluorometric assay; type: biochemical; conditions: ThT assay; for inhibition at 50 µM (stock): [Aβ] = [Inhibitor] = 50 μM (Figure 1 legend)
T3 construct: purchased Merck
T3 sequence (P05067 672-713): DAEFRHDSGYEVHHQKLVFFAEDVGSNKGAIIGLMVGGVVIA
Description: Curcumin was used as a positive control.
A ThT fluorescence assay evaluated the effect of the test compounds on Aβ1−42 fibril formation. Aβ stock solutions were diluted to 50 μM in ultrapure water before use. […] Control samples were prepared by replacing Aβ with 50 mM phosphate buffer (pH 7.4), with or without the inhibitors. After incubation, samples were diluted to 360 μL with 50 mM glycine-NaOH buffer (pH 8.0) containing thioflavin T (5 μM).

[2] = ORAC-FL (Oxygen Radical Absorbance Capacity by Fluorescence) assay; conditions: Trolox equivalents
Description: Briefly, fluorescein and the test compound were pre-incubated in a black 96-well microplate (Nunc) at 37 °C for 15 min. Then, 2,2′-azobis(amidinopropane) dihydrochloride was rapidly added using the integrated injector of a Varioskan Flash plate reader (Thermo Scientific). […] Each experiment was conducted in triplicate, with a minimum of three independent assays performed per compound.

[3] = reported as a standard antioxidant; cited from earlier work

In the case of `c1ccc(Nc2ncnc3ccccc23)cc1` [3a, 4-anilinoquinazoline], the inhibition at 10 µM [1] is reported as less than 50%, the inhibition at 10 µM (equine BuChE (eqBuChE)) is reported as less than 50% and the inhibition at 50 µM (stock) (Aβ1–42) is reported as 10.3%.
With `Cc1nc(Nc2ccccc2)c2ccccc2n1` [3b, 2-Methyl-4-anilinoquinazoline] the inhibition at 10 µM [1] was less than 50%, the inhibition at 10 µM (equine BuChE (eqBuChE)) was less than 50% and the ORAC [2] was 0.51 ± 0.02 TE. For the same molecule, the “Inhibition of Aβ1–42 self-aggregation (in words)” value (Aβ1–42) was “did not display measurable activity”.
Work on `CCc1nc(Nc2ccccc2)c2ccccc2n1` [3c, 2-Ethyl-4-anilinoquinazoline] yielded an inhibition at 10 µM [1] of less than 50% and an IC50 (equine BuChE (eqBuChE); Ellman method) of 5.34 ± 0.15 µM.
For `COc1cc(Nc2ncnc3ccccc23)cc(OC)c1` [3d, 4-(3,5-Dimethoxyphenyl)aminoquinazoline], the inhibition at 10 µM [1] was less than 50%, the inhibition at 10 µM (equine BuChE (eqBuChE)) was less than 50% and the “Inhibition of Aβ1–42 self-aggregation (in words)” value (Aβ1–42) was “did not display measurable activity”.
Molecule `COc1cc(Nc2nc(C)nc3ccccc23)cc(OC)c1` [3e, 2-methyl-4-(3,5-Dimethoxyphenyl)aminoquinazoline] has an IC50 [1] of 6.04 ± 1.05 µM, an IC50 (equine BuChE (eqBuChE); Ellman method) of 9.43 ± 1.13 µM and an ORAC [2] of 1.81 ± 0.19 TE. The “Inhibition of Aβ1–42 self-aggregation (in words)” value (Aβ1–42) was “did not display measurable activity”.
With `CCc1nc(Nc2cc(OC)cc(OC)c2)c2ccccc2n1` [3f, 2-ethyl-4-(3,5-Dimethoxyphenyl)aminoquinazoline] the inhibition at 10 µM [1] was less than 50%, the IC50 (equine BuChE (eqBuChE); Ellman method) was 8.5 ± 1.16 µM and the ORAC [2] was 1.29 ± 0.08 TE. It also gave an inhibition at 50 µM (stock) (Aβ1–42) of 13.6%.
For `COc1ccc(Nc2ncnc3ccccc23)cc1OC` [3g, 4-(3,4-Dimethoxyphenyl)aminoquinazoline], the inhibition at 10 µM [1] was less than 50%, the inhibition at 10 µM (equine BuChE (eqBuChE)) was less than 50% and the ORAC [2] was 5.46 TE and 5.46 ± 0.11 TE. It also gave an inhibition at 50 µM (stock) (Aβ1–42) of 14.7%.
For `CCc1nc(Nc2ccc(OC)c(OC)c2)c2ccccc2n1` [3h, 2-ethyl-4-(3,4-Dimethoxyphenyl)aminoquinazoline], the IC50 [1] was 6.67 µM and 6.61 µM, the “eqBuChE inhibition (in words)” value (equine BuChE (eqBuChE); Ellman method) was “inactive” and the inhibition at 10 µM (equine BuChE (eqBuChE)) was less than 50%. The ORAC [2] was 5.73 TE and 5.73 ± 0.39 TE and the inhibition at 50 µM (stock) (Aβ1–42) was 36.7%.
Work on `Cc1ccc(Nc2ncnc3ccccc23)cc1` [3i, 4-(p-Tolyl)aminoquinazoline] yielded an inhibition at 10 µM [1] of less than 50%, an inhibition at 10 µM (equine BuChE (eqBuChE)) of less than 50% and an inhibition at 50 µM (stock) (Aβ1–42) of 7.1%.
In the case of `Cc1ccc(Nc2nc(C)nc3ccccc23)cc1` [3j, 2-Methyl-4-(p-tolyl)aminoquinazoline], the inhibition at 10 µM [1] is reported as less than 50%, the inhibition at 10 µM (equine BuChE (eqBuChE)) is reported as less than 50% and the ORAC [2] is reported as 0.75 ± 0.08 TE. The inhibition at 50 µM (stock) (Aβ1–42) was 21.2%.
With `CCc1nc(Nc2ccc(C)cc2)c2ccccc2n1` [3k, 2-Ethyl-4-(p-tolyl)aminoquinazoline] the inhibition at 10 µM [1] was less than 50%, the inhibition at 10 µM (equine BuChE (eqBuChE)) was less than 50% and the ORAC [2] was 0.58 ± 0.04 TE. For the same molecule, the inhibition at 50 µM (stock) (Aβ1–42) was 9.4%.
With `Cc1cccc(Nc2ncnc3ccccc23)c1C` [3l, 4-(2,3-Dimethylphenyl)aminoquinazoline] the inhibition at 10 µM [1] was less than 50%, the inhibition at 10 µM (equine BuChE (eqBuChE)) was less than 50% and the ORAC [2] was 0.32 ± 0.05 TE. It also gave an inhibition at 50 µM (stock) (Aβ1–42) of 8.74%.
`Cc1nc(Nc2cccc(C)c2C)c2ccccc2n1` [3m, 2-methyl-4-(2,3-Dimethylphenyl)aminoquinazoline] showed an inhibition at 10 µM [1] of less than 50%, an inhibition at 10 µM (equine BuChE (eqBuChE)) of less than 50% and an inhibition at 50 µM (stock) (Aβ1–42) of 15.8%.
In the case of `O=[N+]([O-])c1ccc(Nc2ncnc3ccccc23)cc1` [3n, 4-(4-Nitrophenyl)aminoquinazoline], the inhibition at 10 µM [1] is reported as less than 50%, the inhibition at 10 µM (equine BuChE (eqBuChE)) is reported as less than 50% and the inhibition at 50 µM (stock) (Aβ1–42) is reported as 6.57%.
Molecule `Cc1nc(Nc2ccc([N+](=O)[O-])cc2)c2ccccc2n1` [3o, 2-Methyl-4-(4-nitrophenyl)aminoquinazoline] has an inhibition at 10 µM [1] of less than 50%, an inhibition at 10 µM (equine BuChE (eqBuChE)) of less than 50% and an ORAC [2] of 0.36 ± 0.01 TE. The inhibition at 50 µM (stock) (Aβ1–42) was 13.7%.
Molecule `Clc1ccc(Nc2ncnc3ccccc23)cc1` [3p, 4-(4-Chlorophenyl)aminoquinazoline] has an inhibition at 10 µM [1] of less than 50%, an inhibition at 10 µM (equine BuChE (eqBuChE)) of less than 50% and an ORAC [2] of 0.40 ± 0.07 TE. The “Inhibition of Aβ1–42 self-aggregation (in words)” value (Aβ1–42) was “inactive; also recorded: did not display measurable activity”.
`CCc1nc(Nc2ccc(Cl)cc2)c2ccccc2n1` [3q, 2-ethyl-4-(4-Chlorophenyl)aminoquinazoline] showed an inhibition at 10 µM [1] of less than 50%, an IC50 (equine BuChE (eqBuChE); Ellman method) of 8.64 ± 0.3 µM and an inhibition at 50 µM (stock) (Aβ1–42) of 1.45%.
`COc1cc(/C=C/C(=O)CC(=O)/C=C/c2ccc(O)c(OC)c2)ccc1O` [Curcumin, reference compound] gave an inhibition at 50 µM (stock) (Aβ1–42) of 58%.
For `COc1cc(/C=C/C(=O)O)ccc1O` [ferulic acid], the ORAC [3] is listed as 3.7 TE.
